Test results: ChEMBL document CHEMBL1147904, “Probing length effects and mechanism of cell penetrating agents mounted on a polyproline helix scaffold” (Bioorg Med Chem Lett, 2007); call rule not given here
Non-standard residues stand in square brackets, D forms with d. Residues, ends and D or L forms follow the SMILES beside them. *: point of attachment. X1 = O=C(O)c1cc(C(=O)*)ccc1-c1c2ccc(=O)cc-2oc2cc(O)ccc12; Propyl(3-guanidino) = N=C(N)NCCC*; Hyp = O=C(O)[C@@H]1C[C@@H](O)CN1; Isobutyl = CC(C)C*

Tests used:
MCF7 [1] = assay: Cellular uptake in MCF7 cells assessed as mean fluorescence at 1 uM after 6 hrs; assay type: ADME, cell-based; settings: human, mcf7, 6 h
MCF7 [2] = assay: Cellular uptake in MCF7 cells assessed as mean fluorescence at 5 uM after 6 hrs; assay type: ADME, cell-based; settings: human, mcf7, 6 h
MCF7 [3] = assay: Cellular uptake in MCF7 cells assessed as mean fluorescence at 10 uM after 6 hrs; assay type: ADME, cell-based; settings: human, mcf7, 6 h
MCF7 [4] = assay: Cellular uptake in MCF7 cells assessed as mean fluorescence at 15 uM after 6 hrs; assay type: ADME, cell-based; settings: human, mcf7, 6 h
MCF7 [5] = assay: Decrease in cellular uptake in MCF7 cells at 15 uM at 4 degC after 6 hrs; assay type: ADME, cell-based; design: scale not given: the % may be the effect or the level left; settings: human, mcf7, 6 h
MCF7 [6] = assay: Decrease in cellular uptake in MCF7 cells at 15 uM at 37 degC after 6 hrs; assay type: ADME, cell-based; design: scale not given: the % may be the effect or the level left; settings: human, mcf7, 6 h
MCF7 [7] = assay: Decrease in cellular uptake in MCF7 cells at 15 uM in presence of sodium azideafter 6 hrs by flow cytometry; assay type: ADME, cell-based; design: scale not given: the % may be the effect or the level left; settings: human, mcf7, 6 h
[8] = Cytotoxicity against MCF7 cells assessed as cell viability at 15 uM after 24 hrs by flow cytometry; assay type: cell-based; settings: human, read-out: Activity

Compound | Activity (MCF7 [1]) | Activity (MCF7 [2]) | Activity (MCF7 [3]) | Activity (MCF7 [4]) | Activity (MCF7 [5]) | Activity (MCF7 [6]) | Activity (MCF7 [7]) | viability at 24 h, 15 µM [8]
CC(C)CO[C@@H]1C[C@@H](C(=O)N2C[C@H](OCCCNC(=N)N)C[C@H]2C(=O)N2C[C@H](OCCCNC(=N)N)C[C@H]2C(=O)N2C[C@H](OCC(C)C)C[C@H]2C(=O)N2C[C@H](OCCCNC(=N)N)C[C@H]2C(=O)N2C[C@H](OCCCNC(=N)N)C[C@H]2C(=O)N2C[C@H](OCC(C)C)C[C@H]2C(=O)N2C[C@H](OCCCNC(=N)N)C[C@H]2C(=O)N2C[C@H](OCCCNC(=N)N)C[C@H]2C(=O)N2C[C@H](OCC(C)C)C[C@H]2C(N)=O)N(C(=O)CNC(=O)c2ccc(-c3c4ccc(=O)cc-4oc4cc(O)ccc34)c(C(=O)O)c2)C1 (X1-G[Hyp](Isobutyl)[Hyp](Propyl(3-guanidino))[Hyp](Propyl(3-guanidino))[Hyp](Isobutyl)[Hyp](Propyl(3-guanidino))[Hyp](Propyl(3-guanidino))[Hyp](Isobutyl)[Hyp](Propyl(3-guanidino))[Hyp](Propyl(3-guanidino))[Hyp](Isobutyl)-NH2) | 2 a.u. | 7 a.u. | 15 a.u. | 63 a.u. | 82% | 89% | Not Active | 80%
CC(C)CO[C@@H]1C[C@@H](C(=O)N2C[C@H](OCCCNC(=N)N)C[C@H]2C(=O)N2C[C@H](OCCCNC(=N)N)C[C@H]2C(=O)N2C[C@H](OCC(C)C)C[C@H]2C(=O)N2C[C@H](OCCCNC(=N)N)C[C@H]2C(=O)N2C[C@H](OCCCNC(=N)N)C[C@H]2C(=O)N2C[C@H](OCC(C)C)C[C@H]2C(=O)N2C[C@H](OCCCNC(=N)N)C[C@H]2C(=O)N2C[C@H](OCCCNC(=N)N)C[C@H]2C(=O)N2C[C@H](OCC(C)C)C[C@H]2C(=O)N2C[C@H](OCCCNC(=N)N)C[C@H]2C(=O)N2C[C@H](OCCCNC(=N)N)C[C@H]2C(=O)N2C[C@H](OCC(C)C)C[C@H]2C(N)=O)N(C(=O)CNC(=O)c2ccc(-c3c4ccc(=O)cc-4oc4cc(O)ccc34)c(C(=O)O)c2)C1 (X1-G[Hyp](Isobutyl)[Hyp](Propyl(3-guanidino))[Hyp](Propyl(3-guanidino))[Hyp](Isobutyl)[Hyp](Propyl(3-guanidino))[Hyp](Propyl(3-guanidino))[Hyp](Isobutyl)[Hyp](Propyl(3-guanidino))[Hyp](Propyl(3-guanidino))[Hyp](Isobutyl)[Hyp](Propyl(3-guanidino))[Hyp](Propyl(3-guanidino))[Hyp](Isobutyl)-NH2) | 4 a.u. | 30 a.u. | 177 a.u. | 420 a.u. | 82% | 89% | 19% | 80%
